Consider 21 compounds from patent US20050096278A1, “Antibacterial agents” (priority 2003, published 2005).

For one series, the system named is E. coli MC4100. The experiment in a line: Antibacterial assay (standard microtitration), MIC. Format: cell-based. The following applies: Gram Negative Bacteria, Table 1A; for MIC: Escherichia coli, MC4100, read-out: Minimum Inhibitory Concentrations, E. coli MC4100. As to the method:
(§1) Test A—Antibacterial Assays
(§2) The compounds of the present invention were tested against an assortment of Gram-negative and Gram-positive organisms using standard microtitration techniques (Cohen et. al., Antimicrob., 1985;28:766; Heifetz, et. al., Antimicrob., 1974;6:124). The results of the evaluation are shown in Tables 1A and B. In the tables, “—” means no data.

Another series concerns M. catarrhalis BC-3531. The experiment in a line: Antibacterial assay (standard microtitration), MIC. The class given is cell-based. The following applies: Moraxella catarrhalis, BC3531; Gram Negative Bacteria; Table 1A; read-out: Minimum Inhibitory Concentrations, M. catarrhalis BC-3531. As to the method: as §1, §2
The test system of another series is H. influenzae HI-3542. The experiment in a line: Antibacterial assay (standard microtitration), MIC. The class given is cell-based. The following applies: Gram Negative Bacteria, Table 1A; for MIC: Haemophilus influenzae, HI3542, read-out: Minimum Inhibitory Concentrations, H. influenzae HI-3542. As to the method: as §1, §2
The next series deals with S pyogenes C203. Put plainly: Antibacterial assay (standard microtitration), MIC. The class given is cell-based. The conditions noted are these: Gram Positive Bacteria; Table 1B; read-out: Minimum Inhibitory Concentrations, S pyogenes C203. The protocol:
as §1, §2

A further series relates to E. faecalis MGH-2. The experiment in a line: Antibacterial assay (standard microtitration), MIC. The class given is cell-based. The following applies: Enterococcus faecalis, MGH2; Gram Positive Bacteria; Table 1B; read-out: Minimum Inhibitory Concentrations, E. faecalis MGH-2. As to the method:
as §1, §2

A further series has as its system S. aureus UC-76. The experiment in a line: Antibacterial assay (standard microtitration), MIC. Format: cell-based. The conditions noted are these: Table 1B; for MIC: Staphylococcus aureus, UC76, Gram Positive Bacteria, read-out: Minimum Inhibitory Concentrations, S. aureus UC-76. The protocol:
as §1, §2

Molecules are shown by their SMILES. In brackets after ≈: the same amount, converted by molar mass.

Consider `COc1c(N2CCC(C(O)CO)CC2)c(F)cc2c(=O)c(C(=O)O)cn(C3CC3)c12` (stereo not drawn) [drawing 327], for which the MIC in the series with E. coli MC4100 was 0.125 µg/mL (≈ 0.297 µM); with M. catarrhalis BC-3531, 0.06 µg/mL (≈ 0.143 µM); in the series with H. influenzae HI-3542 it was 0.03 µg/mL (≈ 0.0714 µM).

Compound `COc1c(N2CCC(C(O)CO)CC2)c(F)cc2c(=O)c(C(=O)O)cn(C3CC3)c12` (stereo not drawn) showed a melting point of 200 to 204 °C.

As to `COc1c(N2CCC(CCO)CC2)c(F)cc2c(=O)c(C(=O)O)cn(C3CC3)c12`, the MIC turned out to be 0.25 µg/mL (≈ 0.618 µM) with S pyogenes C203, 0.125 µg/mL (≈ 0.309 µM) in the series on E. faecalis MGH-2 and 0.015 µg/mL (≈ 0.0371 µM) in the series on S. aureus UC-76.

`COc1c(N2CCCC(C(O)CO)C2)c(F)cc2c(=O)c(C(=O)O)cn(C3CC3)c12` (stereo not drawn) [drawing 353]: the results for the MIC in the series with S pyogenes C203, in the series with E. faecalis MGH-2 and in the series on S. aureus UC-76 were 2 µg/mL (≈ 4.76 µM), 8 µg/mL (≈ 19 µM) and 1 µg/mL (≈ 2.38 µM), respectively.

Regarding `COc1c(N2CCC(O)C(C)(C)C2)c(F)cc2c(=O)c(C(=O)O)cn(C3CC3)c12` (stereo not drawn) [drawing 331], the MIC stood at 0.25 µg/mL (≈ 0.618 µM) in the series on E. coli MC4100, 0.125 µg/mL (≈ 0.309 µM) in the series with M. catarrhalis BC-3531 and 0.125 µg/mL (≈ 0.309 µM) with H. influenzae HI-3542.

`COc1c(N2CCC(CO)CC2)c(F)cc2c(=O)c(C(=O)O)cn(C3CC3)c12` [drawing 348]: the values for the MIC with S pyogenes C203, with E. faecalis MGH-2 and in the series with S. aureus UC-76 were 0.125 µg/mL (≈ 0.32 µM), 0.125 µg/mL (≈ 0.32 µM) and 0.015 µg/mL (≈ 0.0384 µM), respectively.

Consider `COc1c(N2CCC(O)C(CO)C2)c(F)cc2c(=O)c(C(=O)O)cn(C3CC3)c12` (stereo not drawn) [drawing 324], for which the MIC in the series with E. coli MC4100 worked out at 0.25 µg/mL (≈ 0.615 µM); with M. catarrhalis BC-3531, 0.125 µg/mL (≈ 0.308 µM); with H. influenzae HI-3542, 0.015 µg/mL (≈ 0.0369 µM).

Turning to `COc1c(N2CCCC(O)C2)c(F)cc2c(=O)c(C(=O)O)cn(C3CC3)c12` (stereo not drawn) [drawing 358], the MIC with S pyogenes C203 was determined as 0.125 µg/mL (≈ 0.332 µM); in the series with E. faecalis MGH-2 it was 0.002 µg/mL (≈ 0.00531 µM); in the series with S. aureus UC-76, 0.03 µg/mL (≈ 0.0797 µM).

Take `COc1c(N2CCC(O)C(C)C2)c(F)cc2c(=O)c(C(=O)O)cn(C3CC3)c12` (stereo not drawn) [drawing 337]: the “Minimum Inhibitory Concentrations, E. coli MC4100” value in the series on E. coli MC4100 amounted to 0.25 µg/mL. The “Minimum Inhibitory Concentrations, H. influenzae HI-3542” value with H. influenzae HI-3542 was determined as 0.03 µg/mL.

For the compound `Cc1c(N2CCC(CCO)CC2)c(F)cc2c(=O)c(C(=O)O)cn(C3CC3)c12` [drawing 345], the MIC amounted to 0.06 µg/mL (≈ 0.154 µM) in the series with S pyogenes C203, 0.03 µg/mL (≈ 0.0772 µM) in the series on E. faecalis MGH-2 and 0.004 µg/mL (≈ 0.0103 µM) in the series with S. aureus UC-76.

Turning to `COc1c(N2CCC(O)C(O)C2)c(F)cc2c(=O)c(C(=O)O)cn(C3CC3)c12` (stereo not drawn) [drawing 338], the MIC with E. coli MC4100 is 0.25 µg/mL (≈ 0.637 µM); with M. catarrhalis BC-3531 it was 0.125 µg/mL (≈ 0.319 µM); in the series with H. influenzae HI-3542, 0.008 µg/mL (≈ 0.0204 µM).

On to `COc1c(N2CCCC(C(O)CO)C2)c(F)cc2c(=O)c(C(=O)O)cn(C3CC3)c12` (stereo not drawn) [drawing 334], for which the results for the MIC in the series with E. coli MC4100, with M. catarrhalis BC-3531 and in the series on H. influenzae HI-3542 were 1 µg/mL (≈ 2.38 µM), 0.25 µg/mL (≈ 0.595 µM) and 0.125 µg/mL (≈ 0.297 µM), respectively.

For `Cc1c(N2CCC(CCO)CC2)c(F)cc2c(=O)c(C(=O)O)cn(C3CC3)c12` [drawing 326], the figures for the MIC with E. coli MC4100, in the series on M. catarrhalis BC-3531 and in the series with H. influenzae HI-3542 were 0.06 µg/mL (≈ 0.154 µM), 0.015 µg/mL (≈ 0.0386 µM) and 0.03 µg/mL (≈ 0.0772 µM), respectively.

On to `COc1c(N2CCC(O)C(C)C2)c(F)cc2c(=O)c(C(=O)O)cn(C3CC3)c12` (stereo not drawn) [drawing 351], for which the MIC amounted to 0.25 µg/mL (≈ 0.64 µM) in the series on S pyogenes C203 and 0.125 µg/mL (≈ 0.32 µM) in the series on E. faecalis MGH-2. Moreover, in the series with S. aureus UC-76 (Gram Positive Bacteria), the “Minimum Inhibitory Concentrations, S. aureus UC-76” value worked out at 0.008 µg/mL.

Turning to `Cc1c(N2CCCC(O)C2)c(F)cc2c(=O)c(C(=O)O)cn(C3CC3)c12` (stereo not drawn) [drawing 340], the MIC with E. coli MC4100 was found to be 0.125 µg/mL (≈ 0.347 µM); in the series with M. catarrhalis BC-3531, 0.03 µg/mL (≈ 0.0832 µM); in the series on H. influenzae HI-3542 it was 0.015 µg/mL (≈ 0.0416 µM).

Regarding `Cc1c(N2CCCC(C)(O)C2)c(F)cc2c(=O)c(C(=O)O)cn(C3CC3)c12` (stereo not drawn) [drawing 360], the MIC with S pyogenes C203 turned out to be 0.03 µg/mL (≈ 0.0801 µM); in the series with E. faecalis MGH-2, 0.5 µg/mL (≈ 1.34 µM).

As to `COc1c(N2CCC(C(O)CCO)CC2)c(F)cc2c(=O)c(C(=O)O)cn(C3CC3)c12` (stereo not drawn), the melting point is 210 to 214 °C.

For `Cc1c(N2CCCC(C)(O)C2)c(F)cc2c(=O)c(C(=O)O)cn(C3CC3)c12` (stereo not drawn) [drawing 341], the MIC in the series on E. coli MC4100 was 0.5 µg/mL (≈ 1.34 µM); in the series with M. catarrhalis BC-3531, 0.125 µg/mL (≈ 0.334 µM); with H. influenzae HI-3542, 0.06 µg/mL (≈ 0.16 µM).

For `COc1c(N2CCCC(O)C2)c(F)cc2c(=O)c(C(=O)O)cn(C3CC3)c12` (stereo not drawn) [drawing 339], the MIC with E. coli MC4100 was found to be 0.125 µg/mL (≈ 0.332 µM); in the series on M. catarrhalis BC-3531 it was 0.03 µg/mL (≈ 0.0797 µM); in the series with H. influenzae HI-3542 it was 0.002 µg/mL (≈ 0.00531 µM).

Take `COc1c(N2CCC(O)C(O)C2)c(F)cc2c(=O)c(C(=O)O)cn(C3CC3)c12` (stereo not drawn) [drawing 357]: the MIC in the series on S pyogenes C203 came to 0.125 µg/mL (≈ 0.319 µM); in the series with E. faecalis MGH-2 it was 0.125 µg/mL (≈ 0.319 µM); in the series on S. aureus UC-76 it was 0.008 µg/mL (≈ 0.0204 µM).

`COc1c(N2CCCC(CO)C2)c(F)cc2c(=O)c(C(=O)O)cn(C3CC3)c12` (stereo not drawn) [drawing 335]: the MIC in the series on E. coli MC4100 was 0.25 µg/mL (≈ 0.64 µM); with M. catarrhalis BC-3531, 0.06 µg/mL (≈ 0.154 µM); in the series on H. influenzae HI-3542 it was 0.03 µg/mL (≈ 0.0768 µM).
